Measurements: ChEMBL document CHEMBL1201862, “PubChem BioAssay data set” (2004)
Active and inactive are the calls of the source.

Assays:
[1] = system: P388/ADR; experiment: cells; assay type: functional; conditions: Mus musculus
[2] = system: SN12K1; experiment: cells; assay type: functional; conditions: Homo sapiens
[3] = system: P388; experiment: cells; assay type: functional; conditions: Mus musculus
[4] = inhibitors of firefly luciferase expression or activity, dose response, H4 neuroglioma cells, luminescence (AID 1990); assay type: functional, cell-based
[5] = system: Streptococcus sp. 'group A'; experiment: growth inhibition of control SK(-) GAS strain, dose response, counter-screen for streptokinase expression inhibitor project, luminescence, kanamycin, BacTiterGlo, confirmation (AID 1900); assay type: functional, organism-based
[6] = cells; assay type: functional, cell-based
[7] = Luminescence Cell-Based Dose Response HTS to Identify Inhibitors of 5'UTR Stem-Loop Driven Prion Protein mRNA Translation in H4 Neuroglioblastoma Cells. [Related pubchem assays: 1827 (Project Summary), 1813 (Primary HTS)]; assay type: functional
[8] = inhibitors of SNCA 5'UTR-driven reporter translation, confirmation, H4 neuroglioma cells, luminescence (AID 1988); assay type: functional, cell-based
[9] = cells; assay type: functional, cell-based; remark: listed apart in the source
[10] = system: Streptococcus; experiment: Group A Streptococcus viability loss, dose response, counter-screen for streptokinase expression inhibitor project, luminescence, BacTiterGlo (AID 1915); assay type: functional, organism-based;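 further: potency for reduction of bacterial viability or growth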
[11] = Luminescence Cell-Based Dose Retest to Confirm Inhibitors of Cancer Stem Cells. [Related pubchem assays (depositor defined):AID2717, AID2721]; assay type: functional; conditions: Homo sapiens
[12] = molecular target: T1, Heat shock factor protein 1 (Mus musculus, UniProt P38532); experiment: HSF1 potentiators in luciferase reporter cells, confirmation, cell-based, NIH3T3, luminescence, dose retest (AID 435004); assay type: functional;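 further: stress induced by proteasome inhibitor MG132 added 30 min after compound; luciferase reporter driven by HSF1 response element in NIH3T3 cells; actives raise luminescence as potentiators of the MG132 stress response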
T1 sequence (P38532 whole entry): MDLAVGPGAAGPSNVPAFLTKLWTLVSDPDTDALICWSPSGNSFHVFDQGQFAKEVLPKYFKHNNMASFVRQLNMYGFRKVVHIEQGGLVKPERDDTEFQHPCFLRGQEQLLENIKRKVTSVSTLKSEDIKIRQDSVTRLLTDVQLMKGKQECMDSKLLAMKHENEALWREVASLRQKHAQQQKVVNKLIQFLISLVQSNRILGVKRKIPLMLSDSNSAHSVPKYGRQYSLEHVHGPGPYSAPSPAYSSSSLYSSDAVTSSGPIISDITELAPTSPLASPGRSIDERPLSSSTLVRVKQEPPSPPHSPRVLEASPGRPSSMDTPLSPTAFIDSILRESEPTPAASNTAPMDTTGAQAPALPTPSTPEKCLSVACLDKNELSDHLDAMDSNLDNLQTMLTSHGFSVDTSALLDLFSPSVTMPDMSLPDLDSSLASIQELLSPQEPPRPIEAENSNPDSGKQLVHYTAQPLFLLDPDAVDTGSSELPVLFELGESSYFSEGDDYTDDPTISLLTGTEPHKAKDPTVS

[13] = molecular target: T2, Calpain-2 catalytic subunit (Sus scrofa, UniProt P43367); experiment: pig calpain II inhibitor potency, dose response, biochemical, fluorogenic peptide substrate (AID 1420); assay type: functional
T2 sequence (P43367 whole entry): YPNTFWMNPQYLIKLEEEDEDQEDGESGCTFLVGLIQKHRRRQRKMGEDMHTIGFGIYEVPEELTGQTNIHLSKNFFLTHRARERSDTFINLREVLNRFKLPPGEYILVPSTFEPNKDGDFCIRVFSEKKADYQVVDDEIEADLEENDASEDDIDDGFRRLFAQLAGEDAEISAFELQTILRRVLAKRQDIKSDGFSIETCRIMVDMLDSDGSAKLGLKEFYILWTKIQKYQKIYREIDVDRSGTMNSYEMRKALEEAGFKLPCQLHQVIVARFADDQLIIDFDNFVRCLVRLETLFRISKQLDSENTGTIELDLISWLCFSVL

[14] = NIH-3T3 fibroblast cytotoxicity, dose response, cytotoxicity control, cell-based, fluorescence, Alamar Blue, secondary assay (AID 2327); assay type: functional;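 further: NIH-3T3 mouse fibroblasts cultured with fluconazole at 8 µg/mL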
[15] = C. albicans growth with fluconazole, confirmation, fluorescence, retest (AID 2467); assay type: functional, cell-based
[16] = system: INS1; experiment: beta cell apoptosis inhibitors, cytokine rescue, dose response, luminescence, retest (AID 449756); assay type: functional, cell-based; conditions: Rattus norvegicus;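 further: cell death triggered by IL-1 beta plus TNF-alpha plus IFN-gamma mixture; protective hits raise ATP signal compared with cytokine alone wells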
[17] = molecular target: Induced myeloid leukemia cell differentiation protein Mcl-1 (Homo sapiens, UniProt Q07820); assay type: functional
Sequence of Induced myeloid leukemia cell differentiation protein Mcl-1 (Q07820 whole entry): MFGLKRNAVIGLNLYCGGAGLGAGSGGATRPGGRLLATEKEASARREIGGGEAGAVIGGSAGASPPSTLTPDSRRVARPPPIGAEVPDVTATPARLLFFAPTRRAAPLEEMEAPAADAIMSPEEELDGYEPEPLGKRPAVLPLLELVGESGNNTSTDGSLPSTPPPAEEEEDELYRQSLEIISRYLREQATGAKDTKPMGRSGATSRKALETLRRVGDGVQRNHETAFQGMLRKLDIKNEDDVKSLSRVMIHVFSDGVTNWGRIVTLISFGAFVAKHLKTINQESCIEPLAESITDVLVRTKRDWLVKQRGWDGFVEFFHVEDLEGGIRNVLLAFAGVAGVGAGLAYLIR

[18] = molecular target: Cytochrome P450 2C19 (Homo sapiens, UniProt P33261); experiment: Cytochrome panel assay with activity outcomes. Panel member name: p450-cyp2c19 Compounds with AC50 equal or less than 10 uM are considered active; assay type: functional; conditions: read-out: AC50
Sequence of Cytochrome P450 2C19 (P33261 whole entry): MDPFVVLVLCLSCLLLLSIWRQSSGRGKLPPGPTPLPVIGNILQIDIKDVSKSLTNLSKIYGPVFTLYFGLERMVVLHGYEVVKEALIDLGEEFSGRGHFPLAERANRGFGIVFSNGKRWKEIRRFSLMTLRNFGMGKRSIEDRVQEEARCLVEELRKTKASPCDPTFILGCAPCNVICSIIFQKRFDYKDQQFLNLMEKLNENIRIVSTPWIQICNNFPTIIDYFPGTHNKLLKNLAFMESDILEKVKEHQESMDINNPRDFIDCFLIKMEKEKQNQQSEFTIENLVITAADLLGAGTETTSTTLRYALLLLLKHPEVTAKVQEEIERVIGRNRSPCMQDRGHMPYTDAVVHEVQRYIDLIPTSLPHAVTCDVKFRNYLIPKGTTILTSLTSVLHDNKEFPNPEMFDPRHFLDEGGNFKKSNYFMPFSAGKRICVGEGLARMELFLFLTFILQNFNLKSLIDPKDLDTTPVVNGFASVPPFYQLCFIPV

[19] = molecular target: T3, Rac GTPase-activating protein 1 (Homo sapiens, UniProt Q9H0H5); experiment: MgcRacGAP GTPase-activating activity inhibitors, confirmation, biochemical, ADP Hunter fluorescence, primary and confirmatory (AID 624330); assay type: functional
T3 sequence (Q9H0H5 whole entry): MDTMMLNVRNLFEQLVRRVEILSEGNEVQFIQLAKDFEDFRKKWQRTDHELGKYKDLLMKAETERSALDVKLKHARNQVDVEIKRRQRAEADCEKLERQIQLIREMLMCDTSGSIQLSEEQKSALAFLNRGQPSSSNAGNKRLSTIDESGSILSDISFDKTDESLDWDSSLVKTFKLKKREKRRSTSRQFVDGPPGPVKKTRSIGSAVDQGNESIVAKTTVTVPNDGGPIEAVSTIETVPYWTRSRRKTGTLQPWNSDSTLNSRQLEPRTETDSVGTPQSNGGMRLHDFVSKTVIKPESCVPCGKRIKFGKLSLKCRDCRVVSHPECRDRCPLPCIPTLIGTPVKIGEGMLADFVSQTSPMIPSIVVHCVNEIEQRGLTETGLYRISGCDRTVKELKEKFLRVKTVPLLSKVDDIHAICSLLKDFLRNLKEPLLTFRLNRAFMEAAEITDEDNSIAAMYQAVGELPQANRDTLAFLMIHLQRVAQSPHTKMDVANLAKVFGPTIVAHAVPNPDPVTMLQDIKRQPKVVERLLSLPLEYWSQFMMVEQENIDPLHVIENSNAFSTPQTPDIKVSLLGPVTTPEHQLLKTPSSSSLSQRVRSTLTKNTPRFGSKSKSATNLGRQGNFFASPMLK

[20] = molecular target: T4, Ubiquitin-conjugating enzyme E2 N (Homo sapiens, UniProt P61088); assay type: functional;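 further: Dose-response confirmation in a TR-FRET assay detecting UBC13-driven polyubiquitin chain formation, inhibition measured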
T4 sequence (P61088 whole entry): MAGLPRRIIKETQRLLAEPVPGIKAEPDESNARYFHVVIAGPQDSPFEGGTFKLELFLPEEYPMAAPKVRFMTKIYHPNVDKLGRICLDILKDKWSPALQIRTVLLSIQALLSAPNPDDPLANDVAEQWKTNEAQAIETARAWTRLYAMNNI

For C=C1C(=O)OC2CC1CCC1(C)OC1CCC(C)=CCCC2(C)O (stereo not drawn), the GI50 [1] was 0.463 µM (active), the GI50 [2] was 4.35 µM (inactive) and the GI50 [3] was 1.08 µM (active).

For CCCCSc1nc(C)cc(SCC(=O)N/N=C/c2cccc(OC)c2O)n1, the EC50 [4] was 11.6 µM (active), the EC50 [5] was 2.31 µM (active) and the EC50 [6] was 15 µM (active). For the same compound, the EC50 [7] was 9.62 µM (active), the EC50 [8] was 10.2 µM (active) and the EC50 [9] was > 350 µM (not active). For the same compound, the EC50 [10] was 2.61 µM (active), the AC50 [11] was 7.03 µM (active) and the EC50 [12] was > 260 µM (inactive).

With O=C(c1ccccc1)c1cn(CC(=O)N2CCCc3ccccc32)c2ccccc12 the IC50 [13] was < 0.4 µM (not active).

For C/C(=N\NC(=O)c1cc(-c2cccnc2)nc2ccccc12)c1ccc(O)cc1O, the EC50 [14] was 4.94 µM (active), the EC50 [4] was 5.99 µM (active) and the EC50 [6] was 10.9 µM (active). For the same compound, the EC50 [7] was 9.7 µM (active), the EC50 [8] was 8.88 µM (active) and the EC50 [15] was > 38 µM (not active). The EC50 [9] was > 350 µM (not active) and the AC50 [16] was 0.661 µM (active).

In the case of CC(C)(C)C1CCC(C(=O)OCC(=O)N2CCN(C(=O)c3ccco3)CC2)CC1 (stereo not drawn), the IC50 [13] is reported as 29.8 µM (not active).

With CC(=O)c1c(S)nc(-c2ccccc2)nc1N1CCCC1 the IC50 [13] was > 50 µM (not active).

In the case of CC1=C2C3OC(=O)C(C)C3CCC2(C)C=C/C1=N\c1ccccc1 (stereo not drawn), the GI50 [1] is reported as > 100 µM (inactive), the GI50 [2] is reported as > 100 µM (inactive) and the GI50 [3] is reported as > 100 µM (inactive).

For O=C1C=CC(=O)c2c(Cl)ccc(O)c21, the GI50 [1] was 0.344 µM (active), the GI50 [2] was 25.6 µM (inactive) and the GI50 [3] was 0.499 µM (active).

For CN(C)c1ccc(NC(=O)c2cccc(N3C(=O)C4C5C=CC(C5)C4C3=O)c2)cc1 (stereo not drawn), the IC50 [17] was 1.89 µM (not active), the AC50 [18] was 25.1 µM (inconclusive) and the IC50 [19] was 49.2 µM (active).

For CC1NC(=O)C(C)C(c2ccccc2)N(N=O)C1c1ccccc1 (stereo not drawn), the GI50 [1] was 0.933 µM (active), the GI50 [2] was > 100 µM (inactive) and the GI50 [3] was 21 µM (inactive).

For Cc1ccc(NC(=O)C[S+]([O-])CC(=O)NCCCc2ccccc2)cc1Cl (stereo not drawn), the IC50 [20] was > 20 µM (inactive).

In the case of C/C(=N\NC(=O)c1cccc(N/N=C(\C)c2cc(O)ccc2O)c1)c1cc(O)ccc1O, the EC50 [14] is reported as 10.8 µM (active), the EC50 [15] is reported as > 38 µM (not active) and the IC50 [17] is reported as 3.43 µM (active). For the same compound, the EC50 [12] was > 260 µM (inactive) and the IC50 [19] was 67.8 µM (active).

For O=C(N/N=C/c1ccccc1O)c1ccc2c(c1)OCO2, the EC50 [5] was 4.24 µM (active), the EC50 [6] was 101 µM (active) and the EC50 [9] was 12.6 µM (active). For the same compound, the EC50 [10] was 4.46 µM (active) and the AC50 [16] was 2.58 µM (active).

With COc1ccc(-n2ncc(S(=O)(=O)c3ccccc3)c2-c2ccc(Cl)cc2)cc1 the IC50 [13] was 3.23 µM (not active).

For CCOc1ccc(NC(=O)CCCOc2cc(=O)n(C)c3ccccc23)cc1, the IC50 [20] was > 20 µM (inactive).

With O=C(c1ccccc1)c1ccc2nc(-c3ccco3)c(-c3ccco3)nc2c1 the IC50 [17] was 6.46 µM (active) and the EC50 [12] was 32.3 µM (active).

For c1ccc(-c2nnc3sc(-c4cc5ccccc5o4)nn23)cc1, the EC50 [6] was > 350 µM (not active) and the EC50 [9] was > 350 µM (not active).

With Cc1ccc(N2C(=O)N(CC(=O)Nc3cc(C)cc(C)c3)C(=O)C2C)cc1 (stereo not drawn) the IC50 [13] was > 50 µM (not active).
